Measured values taken from patent US20230132823A1, “BI-FUNCTIONAL COMPOUNDS AND METHODS FOR TARGETED UBIQUITINATION OF ANDROGEN RECEPTOR” (MONTELINO THERAPEUTICS, INC., priority 2020, published 2023).

Columns and labels:
[1] = target: T1, estrogen receptor alpha (ER) (Homo sapiens, UniProt P03372); assay: Immunoblot of ER alpha in 22Rv1 cells; format: cell-based; settings: 22Rv1, 24 hours, up to 10 μM
T1 construct: progesterone receptor (PR) a and b, and estrogen receptor alpha (ER); endogenous in cells; host or cells: 22Rv1
T1 sequence (P03372 1-595): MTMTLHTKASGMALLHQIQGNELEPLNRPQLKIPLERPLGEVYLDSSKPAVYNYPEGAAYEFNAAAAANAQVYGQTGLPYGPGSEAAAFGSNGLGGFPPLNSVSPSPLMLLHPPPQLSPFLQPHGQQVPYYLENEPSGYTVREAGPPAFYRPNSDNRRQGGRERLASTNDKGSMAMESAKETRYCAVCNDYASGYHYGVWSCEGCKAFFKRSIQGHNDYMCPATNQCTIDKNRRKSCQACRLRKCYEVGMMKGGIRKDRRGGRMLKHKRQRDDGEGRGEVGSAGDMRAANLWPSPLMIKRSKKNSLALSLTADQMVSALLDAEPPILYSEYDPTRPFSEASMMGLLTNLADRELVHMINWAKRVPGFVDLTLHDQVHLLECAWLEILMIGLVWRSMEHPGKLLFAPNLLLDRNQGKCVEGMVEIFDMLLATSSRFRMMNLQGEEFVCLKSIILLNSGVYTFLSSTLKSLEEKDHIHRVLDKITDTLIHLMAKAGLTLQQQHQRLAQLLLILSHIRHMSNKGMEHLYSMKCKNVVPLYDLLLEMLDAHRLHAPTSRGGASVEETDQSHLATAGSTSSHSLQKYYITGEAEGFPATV
Procedure: Cell Culture. Human CaP cell lines, LNCaP, 22Rv1, VCaP, PC3, and DU145 are obtained from the American Type Culture Collection (ATCC) and maintained in the standard culture media: RPMI-1640 supplemented with 10% fetal bovine serum (FBS). LNCaP, 22Rv1, and VCaP are androgen-responsive cell lines, while PC3 and DU145 are not. To establish SAT resistant CaP cell lines, LNCaP, 22Rv1, and VCaP are treated continuously with 10-50 μM abiraterone, apalutamide, darolutamide, or enzalutamide. After 3-6 months, stable cell lines are established and designated as LNCaP-Abi^R, LNCaP-Apa^R, LNCaP-Daro^R, LNCaP-Enz^R, VCaP-Abi^R, VCaP-Apa^R, VCaP-Daro^R, VCaP-Enz^R, 22Rv1-Abi^R, 22Rv1-Apa^R, 22Rv1-Daro^R and 22Rv1-Enz^R. Unless otherwise specified, the standard culture media for these SAT-resistant cell lines included 10 μM of their respective SAT. For the proteasome inhibitor study, the inhibitors MG132 and Epoxomicin are used. The E3 ligase inhibitors Heclin, Nutlin 3a, Thalidomide, and VH298 are used. […] Mycoplasma contamination is also assessed using a PCR based detection system.
Immunoblot Analysis. […] Cell lysates are then centrifuged and protein in the supernatant is quantified. […] Following the incubation with appropriate secondary antibody, immunoblots are analyzed using SuperSignal West Femto Maximum Sensitivity Substrate (ThermoFisher).

[2] = test system: AR-FL and AR-V7 mRNA; assay: mRNA levels of AR-FL and AR-V7 (quantitative PCR); format: cell-based, human
[3] = test system: VCaP; assay: VCaP cell proliferation; format: cell-based, human; settings: androgen-responsive cell line; 1 μM

- effect on expression level of estrogen receptor alpha (ER) [1]: no visible effect
Compound: Cc1ncsc1-c1ccc([C@H](C)NC(=O)[C@@H]2C[C@@H](O)CN2C(=O)[C@@H](NC(=O)CCCCNC(=O)COc2c(-c3csc(N4CCOCC4)n3)ccc(F)c2F)C(C)(C)C)cc1 [Example 16, (2S,4R)-1-((S)-2-(5-(2-(2,3-difluoro-6-(2-morpholinothiazol-4-yl)phenoxy)acetamido)pentanamido)-3,3-dimethylbutanoyl)-4-hydroxy-N-((S)-1-(4-(4-methylthiazol-5-yl)phenyl)ethyl)pyrrolidine-2-carboxamide]
- effect on mRNA levels of AR-FL and AR-V7 [2]: no major effect
- effect on proliferation of VCaP [3]: inhibits the proliferation
